From patent publication US20260242330A1, “USE OF AN AMANTADINE MONONITRATE COMPOUND IN MANUFACTURE OF A MEDICAMENT FOR THE PREVENTION AND TREATMENT OF HYPERTENSION” (GUANGZHOU MAGPIE PHARMACEUTICALS CO., LTD., priority 2022, published 2026)

System: blood pressure of subjects
Assay: Effect of multiple administration of MN-08 on blood pressure of subjects (3 days)
Assay type: in vivo, human
Text: All subjects in the following embodiments have signed informed consent forms, which comply with medical ethics regulations. According to the relevant provisions of Chinese Guidelines for the Prevention and Treatment of Hypertension (2018 Revision), the values measured for hypertension are the average blood pressure measured three times on a different day without the use of antihypertensive drugs. Therefore, in this embodiment, the baseline blood pressure of the subjects before administration is set as the average blood pressure measured at three different times: screening period, occupancy period, and 1 hour before administration, as shown in Tables 1 to 3.
Multiple dosing trials: Participants in each dose group fasted for at least 10 hours before administration, without water deprivation overnight. Each group of subjects took the test drug orally on an empty stomach twice a day (with an interval of 12 hours and at least 1 hour on an empty stomach before the second administration). The first administration time every day is around 8 am, taken with 240 mL of water. Taking subjects 15-17 as an example, the effect of multiple doses of MN-08 (3 days) on subjects' blood pressure was investigated.

For `CCC12CC3CC(N)(C1)CC(CO[N+](=O)[O-])(C3)C2` (stereo not shown) [MN-08], the DP (Subject 15, 12 mg twice a day, D 1, 2 hrs after 2nd adm., baseline 75 mmHg) was 59 mmHg, the SP (Subject 15, 12 mg twice a day, D 1, 2 hrs after 2nd adm., baseline 108 mmHg) was 94 mmHg and the DP (Subject 15, 12 mg twice a day, D 1, 4 hrs after 1st adm., baseline 75 mmHg) was 61 mmHg. The SP (Subject 15, 12 mg twice a day, D 1, 4 hrs after 1st adm., baseline 108 mmHg) was 96 mmHg, the DP (Subject 15, 12 mg twice a day, D 1, 8 hrs after 1st adm., baseline 75 mmHg) was 51 mmHg and the SP (Subject 15, 12 mg twice a day, D 1, 8 hrs after 1st adm., baseline 108 mmHg) was 100 mmHg. The DP (Subject 15, 12 mg twice a day, D 2, 2 hrs after 2nd adm., baseline 75 mmHg) was 64 mmHg, the SP (Subject 15, 12 mg twice a day, D 2, 2 hrs after 2nd adm., baseline 108 mmHg) was 95 mmHg and the DP (Subject 15, 12 mg twice a day, D 2, 4 hrs after 1st adm., baseline 75 mmHg) was 56 mmHg. For the same compound, the SP (Subject 15, 12 mg twice a day, D 2, 4 hrs after 1st adm., baseline 108 mmHg) was 92 mmHg, the DP (Subject 15, 12 mg twice a day, D 2, 8 hrs after 1st adm., baseline 75 mmHg) was 57 mmHg and the SP (Subject 15, 12 mg twice a day, D 2, 8 hrs after 1st adm., baseline 108 mmHg) was 108 mmHg. The DP (Subject 15, 12 mg twice a day, D 3, 2 hrs after 2nd adm., baseline 75 mmHg) was 65 mmHg, the SP (Subject 15, 12 mg twice a day, D 3, 2 hrs after 2nd adm., baseline 108 mmHg) was 105 mmHg and the DP (Subject 15, 12 mg twice a day, D 3, 4 hrs after 1st adm., baseline 75 mmHg) was 64 mmHg. For the same compound, the SP (Subject 15, 12 mg twice a day, D 3, 4 hrs after 1st adm., baseline 108 mmHg) was 95 mmHg, the DP (Subject 15, 12 mg twice a day, D 3, 8 hrs after 1st adm., baseline 75 mmHg) was 57 mmHg and the SP (Subject 15, 12 mg twice a day, D 3, 8 hrs after 1st adm., baseline 108 mmHg) was 86 mmHg. The DP (Subject 16, 24 mg twice a day, D 1, 2 hrs after 2nd adm., baseline 81 mmHg) was 66 mmHg, the SP (Subject 16, 24 mg twice a day, D 1, 2 hrs after 2nd adm., baseline 118 mmHg) was 103 mmHg and the DP (Subject 16, 24 mg twice a day, D 1, 4 hrs after 1st adm., baseline 81 mmHg) was 61 mmHg. The SP (Subject 16, 24 mg twice a day, D 1, 4 hrs after 1st adm., baseline 118 mmHg) was 97 mmHg, the DP (Subject 16, 24 mg twice a day, D 1, 8 hrs after 1st adm., baseline 81 mmHg) was 63 mmHg and the SP (Subject 16, 24 mg twice a day, D 1, 8 hrs after 1st adm., baseline 118 mmHg) was 102 mmHg. It also gave a DP (Subject 16, 24 mg twice a day, D 2, 2 hrs after 2nd adm., baseline 81 mmHg) of 61 mmHg, an SP (Subject 16, 24 mg twice a day, D 2, 2 hrs after 2nd adm., baseline 118 mmHg) of 100 mmHg and a DP (Subject 16, 24 mg twice a day, D 2, 4 hrs after 1st adm., baseline 81 mmHg) of 69 mmHg. For the same compound, the SP (Subject 16, 24 mg twice a day, D 2, 4 hrs after 1st adm., baseline 118 mmHg) was 106 mmHg, the DP (Subject 16, 24 mg twice a day, D 2, 8 hrs after 1st adm., baseline 81 mmHg) was 65 mmHg and the SP (Subject 16, 24 mg twice a day, D 2, 8 hrs after 1st adm., baseline 118 mmHg) was 99 mmHg. For the same compound, the DP (Subject 16, 24 mg twice a day, D 3, 2 hrs after 2nd adm., baseline 81 mmHg) was 69 mmHg, the SP (Subject 16, 24 mg twice a day, D 3, 2 hrs after 2nd adm., baseline 118 mmHg) was 98 mmHg and the DP (Subject 16, 24 mg twice a day, D 3, 4 hrs after 1st adm., baseline 81 mmHg) was 67 mmHg. The SP (Subject 16, 24 mg twice a day, D 3, 4 hrs after 1st adm., baseline 118 mmHg) was 107 mmHg, the DP (Subject 16, 24 mg twice a day, D 3, 8 hrs after 1st adm., baseline 81 mmHg) was 63 mmHg and the SP (Subject 16, 24 mg twice a day, D 3, 8 hrs after 1st adm., baseline 118 mmHg) was 95 mmHg. For the same compound, the DP (Subject 17, 24 mg twice a day, D 1, 2 hrs after 2nd adm., baseline 87 mmHg) was 73 mmHg, the SP (Subject 17, 24 mg twice a day, D 1, 2 hrs after 2nd adm., baseline 126 mmHg) was 107 mmHg and the DP (Subject 17, 24 mg twice a day, D 1, 4 hrs after 1st adm., baseline 87 mmHg) was 81 mmHg. For the same compound, the SP (Subject 17, 24 mg twice a day, D 1, 4 hrs after 1st adm., baseline 126 mmHg) was 126 mmHg, the DP (Subject 17, 24 mg twice a day, D 1, 8 hrs after 1st adm., baseline 87 mmHg) was 66 mmHg and the SP (Subject 17, 24 mg twice a day, D 1, 8 hrs after 1st adm., baseline 126 mmHg) was 112 mmHg. The DP (Subject 17, 24 mg twice a day, D 2, 2 hrs after 2nd adm., baseline 87 mmHg) was 63 mmHg, the SP (Subject 17, 24 mg twice a day, D 2, 2 hrs after 2nd adm., baseline 126 mmHg) was 94 mmHg and the DP (Subject 17, 24 mg twice a day, D 2, 4 hrs after 1st adm., baseline 87 mmHg) was 73 mmHg. The SP (Subject 17, 24 mg twice a day, D 2, 4 hrs after 1st adm., baseline 126 mmHg) was 102 mmHg, the DP (Subject 17, 24 mg twice a day, D 2, 8 hrs after 1st adm., baseline 87 mmHg) was 68 mmHg and the SP (Subject 17, 24 mg twice a day, D 2, 8 hrs after 1st adm., baseline 126 mmHg) was 115 mmHg. For the same compound, the DP (Subject 17, 24 mg twice a day, D 3, 2 hrs after 2nd adm., baseline 87 mmHg) was 74 mmHg, the SP (Subject 17, 24 mg twice a day, D 3, 2 hrs after 2nd adm., baseline 126 mmHg) was 110 mmHg and the DP (Subject 17, 24 mg twice a day, D 3, 4 hrs after 1st adm., baseline 87 mmHg) was 70 mmHg. For the same compound, the SP (Subject 17, 24 mg twice a day, D 3, 4 hrs after 1st adm., baseline 126 mmHg) was 107 mmHg, the DP (Subject 17, 24 mg twice a day, D 3, 8 hrs after 1st adm., baseline 87 mmHg) was 76 mmHg and the SP (Subject 17, 24 mg twice a day, D 3, 8 hrs after 1st adm., baseline 126 mmHg) was 111 mmHg. The “effect on blood pressure of the subjects” value (continuous administration for 3 days, twice a day, 12 mg and 24 mg groups, decrease in diastolic greater than in systolic pressure) was “can lower the blood pressure”.
